Test results as given in patent publication US6355799B1, “Substituted benzene compounds, process for their preparation, and herbicidal and defoliant compositions containing them” (ISK Americas Incorporated, priority 1997, dated 2002).

What was measured:
Format in all cases: in vivo
[1] = system: redroot pigweed (Amaranthus retroflexus, AMARE); test: Pre-emerge test, greenhouse herbicide activity screening; settings: rated 14 days after application, 0 = no damage, 100 = complete death
Outline: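 Sandy loam pots; pre-emerge: sown 1 d pre-spray, surface-watered after, then bottom-watered. Post-emerge: sown 8–21 d before, 2–3 leaf stage, + 0.25% v/v NIS, bottom-watered. Acetone, 187 l/ha track spray, 15–1000 g ai/ha. 0–100 injury score, day 14.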

[2] = system: barnyardgrass (Echinochloa crus-galli, ECHCG); test: as above; settings: rated 14 days after application, 0 = no damage, 100 = complete death
Outline: (§1)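 Compounds in acetone were track-sprayed at 15–1000 g ai/ha: pre-emergence onto soil sown the previous day, then top-watered to incorporate and later bottom-watered; post-emergence onto 2–3 leaf plants with 0.25% v/v surfactant, bottom-watered only. Ratings on a 0–100 phytotoxicity scale were taken at day 14.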

[3] = system: green foxtail (Setaria viridis, SETVI); test: as above; settings: rated 14 days after application, 0 = no damage, 100 = complete death
Outline: as §1

[4] = system: ivyleaf morningglory (Ipomoea hederacea, IPOHE); test: as above; settings: rated 14 days after application, 0 = no damage, 100 = complete death
Outline: as §1

[5] = system: johnsongrass (Sorghum halepense, SORHA); test: as above; settings: rated 14 days after application, 0 = no damage, 100 = complete death
Outline: as §1

[6] = system: lambsquarters (Chenopodium album, CHEAL); test: as above; settings: rated 14 days after application, 0 = no damage, 100 = complete death
Outline: as §1

[7] = system: large crabgrass (Digitaria sanguinalis, DIGSA); test: as above; settings: rated 14 days after application, 0 = no damage, 100 = complete death
Outline: as §1

[8] = system: sicklepod (Cassia obtusifolia, CASOB); test: as above; settings: rated 14 days after application, 0 = no damage, 100 = complete death
Outline: as §1

[9] = system: velvetleaf (Abutilon theophrasti, ABUTH); test: as above; settings: rated 14 days after application, 0 = no damage, 100 = complete death
Outline: as §1

[10] = system: field corn (Zea mays L., var. Dekalb 535, CORN); test: Pre-emerge test, crop safety; settings: rated 14 days after application, 0 = no damage, 100 = complete death
Outline: (§2)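 Compounds in acetone were track-sprayed at 15-1000 g ai/ha (187 l/ha) on sandy loam pots: pre-emerge one day after seeding, post-emerge at 2-3 leaf stage with 0.25% v/v non-ionic surfactant. Phytotoxicity was rated 14 days later on a 0 (no damage) to 100 (complete death) scale.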

[11] = system: upland rice (Oryza sp., var. Tebonnet, RICE); test: Pre-emerge test, crop safety; settings: rated 14 days after application, 0 = no damage, 100 = complete death
Outline: as §2

[12] = system: barnyardgrass (Echinochloa crus-galli, ECHCG); test: Post-emerge test, greenhouse herbicide activity screening; settings: post-emerge, 14 days after application, rating scale 0-100
Outline: (§3)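 Applied at 15–1000 g ai/ha from acetone in 187 l/ha spray volume. Post-emergence applications included 0.25% v/v non-ionic surfactant and reached plants sown 8–21 days before. Pre-emergence applications were incorporated by surface watering. Efficacy or crop damage was rated on a 0–100 scale after 14 days.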

[13] = system: green foxtail (Setaria viridis, SETVI); test: as above; settings: post-emerge, 14 days after application, rating scale 0-100
Outline: as §3

[14] = system: ivyleaf morningglory (Ipomoea hederacea, IPOHE); test: as above; settings: post-emerge, 14 days after application, rating scale 0-100
Outline: as §3

[15] = system: johnsongrass (Sorghum halepense, SORHA); test: as above; settings: post-emerge, 14 days after application, rating scale 0-100
Outline: as §3

[16] = system: lambsquarters (Chenopodium album, CHEAL); test: as above; settings: post-emerge, 14 days after application, rating scale 0-100
Outline: as §3

[17] = system: large crabgrass (Digitaria sanguinalis, DIGSA); test: as above; settings: post-emerge, 14 days after application, rating scale 0-100
Outline: as §3

[18] = system: redroot pigweed (Amaranthus retroflexus, AMARE); test: as above; settings: post-emerge, 14 days after application, rating scale 0-100
Outline: as §3

[19] = system: sicklepod (Cassia obtusifolia, CASOB); test: as above; settings: post-emerge, 14 days after application, rating scale 0-100
Outline: as §3

[20] = system: velvetleaf (Abutilon theophrasti, ABUTH); test: as above; settings: post-emerge, 14 days after application, rating scale 0-100
Outline: as §3

[21] = system: field corn (Zea mays L., var. Dekalb 535, CORN); test: Post-emerge test, crop safety; settings: post-emerge, 14 days after application, rating scale 0-100
Outline: (§4)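 Rating: 0–100 visual injury, 14 DAA. Application: acetone, 187 l/ha, 15–1000 g ai/ha, flat-fan track sprayer with nozzle 40–45 cm above soil or canopy. Post-emerge runs used 0.25% v/v surfactant on 2–3 leaf plants.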

[22] = system: upland rice (Oryza sp., var. Tebonnet, RICE); test: Post-emerge test, crop safety; settings: post-emerge, 14 days after application, rating scale 0-100
Outline: as §4

COc1c(Cl)cc(F)c(-n2c(=O)cc(C(F)(F)F)n(C)c2=O)c1NC(=O)COc1ccccc1 [2-119]
Pre-emerge Herbicidal Activity, phytotoxicity rating (0-100), AMARE ([1]; 63 g ai/ha): 100
Pre-emerge Herbicidal Activity, phytotoxicity rating (0-100), AMARE ([1]; 250 g ai/ha): 100
Pre-emerge Herbicidal Activity, phytotoxicity rating (0-100), ECHCG ([2]; 63 g ai/ha): 70
Pre-emerge Herbicidal Activity, phytotoxicity rating (0-100), ECHCG ([2]; 250 g ai/ha): 95
Pre-emerge Herbicidal Activity, phytotoxicity rating (0-100), SETVI ([3]; 63 g ai/ha): 100
Pre-emerge Herbicidal Activity, phytotoxicity rating (0-100), SETVI ([3]; 250 g ai/ha): 100
Pre-emerge Herbicidal Activity, phytotoxicity rating (0-100), IPOHE ([4]; 63 g ai/ha): 70
Pre-emerge Herbicidal Activity, phytotoxicity rating (0-100), IPOHE ([4]; 250 g ai/ha): 100
Pre-emerge Herbicidal Activity, phytotoxicity rating (0-100), SORHA ([5]; 63 g ai/ha): 75
Pre-emerge Herbicidal Activity, phytotoxicity rating (0-100), SORHA ([5]; 250 g ai/ha): 100
Pre-emerge Herbicidal Activity, phytotoxicity rating (0-100), CHEAL ([6]; 63 g ai/ha): 100
Pre-emerge Herbicidal Activity, phytotoxicity rating (0-100), CHEAL ([6]; 250 g ai/ha): 100
Pre-emerge Herbicidal Activity, phytotoxicity rating (0-100), DIGSA ([7]; 63 g ai/ha): 70
Pre-emerge Herbicidal Activity, phytotoxicity rating (0-100), DIGSA ([7]; 250 g ai/ha): 100
Pre-emerge Herbicidal Activity, phytotoxicity rating (0-100), CASOB ([8]; 63 g ai/ha): 60
Pre-emerge Herbicidal Activity, phytotoxicity rating (0-100), CASOB ([8]; 250 g ai/ha): 90
Pre-emerge Herbicidal Activity, phytotoxicity rating (0-100), ABUTH ([9]; 63 g ai/ha): 100
Pre-emerge Herbicidal Activity, phytotoxicity rating (0-100), ABUTH ([9]; 250 g ai/ha): 100
Pre-emerge phytotoxicity rating (0-100), crop damage, CORN ([10]; 63 g ai/ha): 20
Pre-emerge phytotoxicity rating (0-100), crop damage, CORN ([10]; 250 g ai/ha): 90
Pre-emerge phytotoxicity rating (0-100), crop damage, RICE ([11]; 63 g ai/ha): 70
Pre-emerge phytotoxicity rating (0-100), crop damage, RICE ([11]; 250 g ai/ha): 100
phytotoxicity rating ECHCG ([12]; 63 g ai/ha): 40
phytotoxicity rating ECHCG ([12]; 250 g ai/ha): 90
phytotoxicity rating SETVI ([13]; 63 g ai/ha): 40
phytotoxicity rating SETVI ([13]; 250 g ai/ha): 90
phytotoxicity rating IPOHE ([14]; 63 g ai/ha): 100
phytotoxicity rating IPOHE ([14]; 250 g ai/ha): 100
phytotoxicity rating SORHA ([15]; 63 g ai/ha): 60
phytotoxicity rating SORHA ([15]; 250 g ai/ha): 90
phytotoxicity rating CHEAL ([16]; 63 g ai/ha): 80
phytotoxicity rating CHEAL ([16]; 250 g ai/ha): 100
phytotoxicity rating DIGSA ([17]; 63 g ai/ha): 30
phytotoxicity rating DIGSA ([17]; 250 g ai/ha): 80
phytotoxicity rating AMARE ([18]; 63 g ai/ha): 90
phytotoxicity rating AMARE ([18]; 250 g ai/ha): 100
phytotoxicity rating CASOB ([19]; 63 g ai/ha): 30
phytotoxicity rating CASOB ([19]; 250 g ai/ha): 60
phytotoxicity rating ABUTH ([20]; 63 g ai/ha): 100
phytotoxicity rating ABUTH ([20]; 250 g ai/ha): 100
phytotoxicity rating CORN ([21]; 63 g ai/ha): 70
phytotoxicity rating CORN ([21]; 250 g ai/ha): 90
phytotoxicity rating RICE ([22]; 63 g ai/ha): 60
phytotoxicity rating RICE ([22]; 250 g ai/ha): 90
